The record followed here is patent US20020177625A1, “Class of glaucoma drugs to enhance aqueous humor outflow and lower intra-ocular pressure” (The Regents of the University of California, a California …, priority 2001, published 2002).

This test has as its target T1, Na—K—Cl co-transporter (Homo sapiens, UniProt P55011).
T1 construct: endogenous in cells; host or cells: cultured human trabecular meshwork (TM) cells, normal or glaucomatous donors
T1 sequence (P55011 1-1212): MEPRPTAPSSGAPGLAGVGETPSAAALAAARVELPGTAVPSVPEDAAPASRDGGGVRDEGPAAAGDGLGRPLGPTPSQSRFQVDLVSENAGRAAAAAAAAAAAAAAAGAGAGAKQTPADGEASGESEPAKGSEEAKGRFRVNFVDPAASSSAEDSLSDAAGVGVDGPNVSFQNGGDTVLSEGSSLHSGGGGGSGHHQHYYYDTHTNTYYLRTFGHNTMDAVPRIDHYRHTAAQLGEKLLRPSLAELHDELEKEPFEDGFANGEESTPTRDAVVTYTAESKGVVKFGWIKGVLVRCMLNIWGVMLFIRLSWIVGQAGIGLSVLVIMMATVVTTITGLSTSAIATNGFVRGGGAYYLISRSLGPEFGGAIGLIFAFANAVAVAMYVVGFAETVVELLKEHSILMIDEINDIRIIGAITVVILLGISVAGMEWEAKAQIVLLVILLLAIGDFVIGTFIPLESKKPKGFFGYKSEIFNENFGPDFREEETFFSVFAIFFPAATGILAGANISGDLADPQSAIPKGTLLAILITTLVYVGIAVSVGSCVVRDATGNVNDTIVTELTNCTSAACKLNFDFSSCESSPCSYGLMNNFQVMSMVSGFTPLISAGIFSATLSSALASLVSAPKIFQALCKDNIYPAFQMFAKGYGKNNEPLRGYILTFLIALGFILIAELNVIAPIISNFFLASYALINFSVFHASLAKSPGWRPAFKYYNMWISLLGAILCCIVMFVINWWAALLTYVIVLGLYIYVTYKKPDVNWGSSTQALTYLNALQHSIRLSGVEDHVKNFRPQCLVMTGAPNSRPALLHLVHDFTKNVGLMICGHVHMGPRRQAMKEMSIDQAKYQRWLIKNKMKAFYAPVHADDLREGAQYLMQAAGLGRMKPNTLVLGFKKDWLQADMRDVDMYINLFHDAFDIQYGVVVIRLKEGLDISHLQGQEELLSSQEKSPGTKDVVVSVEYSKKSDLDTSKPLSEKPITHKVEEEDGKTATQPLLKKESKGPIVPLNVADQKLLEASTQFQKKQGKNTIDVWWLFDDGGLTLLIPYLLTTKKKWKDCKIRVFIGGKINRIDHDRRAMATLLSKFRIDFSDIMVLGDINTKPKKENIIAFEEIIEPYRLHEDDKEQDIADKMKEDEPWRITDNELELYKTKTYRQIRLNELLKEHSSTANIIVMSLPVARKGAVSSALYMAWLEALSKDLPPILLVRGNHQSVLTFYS
The test is described as follows: Na—K—Cl co-transport measured as bumetamide-sensitive K influx (86Rb tracer) in human TM cell monolayers. The format is cell-based. The settings on record: human TM cells. The method, then: Na—K—Cl co-transport was measured as ouabain-insensitive, bumetamide-sensitive potassium influx, using ^86Rb as a tracer for potassium. […] The assay medium also contained ^86Rb (1 μCi/ml) (Dupont New England Nuclear, Boston, Mass.). The assay was terminated by rinsing the wells with ice-cold isotonic MgCl2, then extracting the contents with 0.2% sodium dodecyl sulfate (SDS), and determining the amount of radioactive contents by liquid scintillation. Osmolarities of all preincubation and assay media were verified by osmometry (Model 3W2, Advanced Instruments, Norwood, Mass.).
The cells were pretreated with Hepes-buffered minimal essential medium (MEM) ±10 μM bumetamide ±1 mM ouabain for 5 min, then assayed for 5 min in the same media plus ^86Rb. […] Data are means ±SEM, n=12.
Na—K—Cl co-transport activity of glaucomatous human TM cells was assessed as ouabain-insensitive, bumetamide-sensitive K influx, using ^86Rb as a tracer for K, as described previously. TM cells were preincubated for 5 minutes in a Hepes-buffered MEM containing 0 or 10 μM bumetamide in the presence of 1 mM ouabain, followed by a 5 minute assay in media of identical composition except that they also contained ^86Rb. […] Data are mean values ±SEM in seven normal TM cultures (donor age range, 38-68 years, n=12 in each cell culture) and in seven glaucomatous cultures (donor age range 41-75 years, n=7 in each cell culture).
Human TM cells were equilibrated in Hepes-buffered MEM for 30 minutes and then pretreated for 5 minutes in media containing 1 mM ouabain, 10 or 0 μM bumetamide, and 0.3 μM to 1 mM niflumic acid (NA). Cells were then assayed for bumetamide-sensitive K influx for 5 minutes in media identical to the pretreatment media but also containing ^86Rb (1 μCi/ml). […] Dashed line indicates control level of Na—K—Cl co-transport. Data are means ±SEM of at least 4 determinations from 3 experiments.

Consider `O=C(O)c1cccnc1Nc1cccc(C(F)(F)F)c1` [niflumic acid], for which the “K influx value versus 0 mM NA control” value (niflumic acid 0.1 μM) is “not significantly different”. The “Na—K—Cl co-transporter activity” value (niflumic acid 0.3 μM to 100 μM) was “significantly stimulate”.
